Where “and” joins values, the source holds several entries; their conditions need not be identical. Identical values can stand only once.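 Method: 48-hour compound exposure of cells in 96-well plates, five concentrations, linear interpolation of endpoints. Abbreviation: GI50, concentration required for 50% inhibition of growth. TGI marks complete inhibition of growth.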
Legend:
Assay in all cases: NCI-60 cell line screen, 48 h
SN12C renal = tested on: SN12C renal
PC-3 prostate = tested on: PC-3 prostate
HOP-62 NSCLC = tested on: HOP-62 NSCLC
COLO 205 colon = tested on: COLO 205 colon
ACHN renal = tested on: ACHN renal
SF-268 CNS = tested on: SF-268 CNS
HCC-2998 colon = tested on: HCC-2998 colon
MOLT-4 leukemia = tested on: MOLT-4 leukemia
HCT-116 colon = tested on: HCT-116 colon
OVCAR-8 ovarian = tested on: OVCAR-8 ovarian

Row | SMILES | GI50 (SN12C renal) | TGI (SN12C renal) | GI50 (PC-3 prostate) | TGI (PC-3 prostate) | GI50 (HOP-62 NSCLC) | TGI (HOP-62 NSCLC) | GI50 (COLO 205 colon) | TGI (COLO 205 colon) | GI50 (ACHN renal) | TGI (ACHN renal) | GI50 (SF-268 CNS) | TGI (SF-268 CNS) | GI50 (HCC-2998 colon) | TGI (HCC-2998 colon) | GI50 (MOLT-4 leukemia) | TGI (MOLT-4 leukemia) | GI50 (HCT-116 colon) | TGI (HCT-116 colon) | GI50 (OVCAR-8 ovarian) | TGI (OVCAR-8 ovarian)
1 | O=C(Nc1ccccc1OC(F)(F)F)Nc1n[nH]c2ccccc12 | 72.5 µM | > 100 µM | 31.4 µM | > 100 µM | 19.6 µM | 73.4 µM | 71.8 µM | > 100 µM | 31.1 µM | > 100 µM | 16.2 µM | > 100 µM | 55.9 µM | > 100 µM | 5.91 µM | > 100 µM | 16.2 µM | > 100 µM | 29.6 µM | > 100 µM
2 | Cc1ccc2c(=O)cc(-c3ccc(F)cc3)[nH]c2n1 |  | > 100 µM | 20.9 µM | 88.1 µM |  | > 100 µM |  | 47.9 µM |  | > 100 µM |  | > 100 µM |  | > 100 µM |  | > 100 µM | 33.9 µM | > 100 µM |  | > 100 µM
3 | CCCCCN(CCCCC)CC(O)c1cc(C)c2ccc3cc(C(C)C)ccc3c2c1 (stereo not drawn) | 1.75 µM | 3.59 µM | 1.59 µM | 3.08 µM | 2.12 µM | 5.7 µM | 2.08 µM | 4.22 µM | 1.6 µM | 3.05 µM | 2.14 µM | 4.26 µM | 1.85 µM | 3.4 µM | 2.21 µM | 4.72 µM | 1.73 µM | 3.32 µM | 2.55 µM | 6.46 µM
4 | COC1=CC(c2ccc[nH]2)=N/C1=C\c1[nH]c(C)c(C(=O)OC(C)C)c1C | 0.068 µM | 2.01 µM | 0.0633 µM | 4.7 µM | 0.123 µM | 1.84 µM | 0.0733 µM | 1.46 µM | 0.0456 µM | 1.2 µM | 0.0608 µM | 5.25 µM | 0.0485 µM | 1.36 µM | 0.0346 µM | 3.51 µM | 0.0274 µM | 1.07 µM | 0.0397 µM | 1.04 µM
5 | c1ccc2cc(-c3cc(-c4cc(-c5ccc6ccccc6c5)on4)no3)ccc2c1 |  | > 100 µM |  | > 100 µM |  | > 100 µM |  | > 100 µM |  | > 100 µM |  | > 100 µM |  | > 100 µM |  | > 100 µM |  | > 100 µM |  | > 100 µM
6 | CCOC(=O)[C@]1(OC(C)=O)C[C@H](OC(C)=O)[C@@H](C(F)COP(=O)(OCc2ccccc2)OCc2ccccc2)O1 (stereo partly drawn) |  | > 100 µM |  | 88 µM and > 100 µM |  | > 100 µM | 19.4 µM and > 100 µM | 36.3 µM and > 100 µM | 34.8 µM and > 100 µM | > 100 µM |  | > 100 µM |  | > 100 µM |  | > 100 µM | 23.4 µM and > 100 µM | 57.9 µM and > 100 µM |  | > 100 µM
7 | CC1(C)CCc2c(c3c(c4c(=O)c(O)c(-c5ccc(O)cc5)oc24)OC(C)(C)CC3)O1 | 82.9 µM | > 100 µM | > 100 µM | > 100 µM | 24.8 µM | 54.7 µM | > 100 µM | > 100 µM | 48.9 µM | > 100 µM | 30.5 µM | > 100 µM | > 100 µM | > 100 µM | 37.2 µM | > 100 µM | 57.6 µM | > 100 µM | 36.3 µM | > 100 µM
8 | Clc1ccc2c(NCCCCNc3nc(N4CCCCC4)nc4ccccc34)ccnc2c1 | 2.78 µM | 12.7 µM | 3.33 µM | 14.6 µM | 1.9 µM | 5.88 µM | 1.64 µM | 3.59 µM | 2.1 µM | 4.77 µM | 1.84 µM | 7.56 µM | 1.96 µM | 4.23 µM | 1.98 µM | 5.62 µM | 1.2 µM | 3.06 µM | 2.82 µM | 10.4 µM
9 | Cc1nc2ccccc2c(N)c1-c1cc(C)c2c(C)nc3ccccc3c2n1 | 1.41 µM | 2.9 µM | 1.02 µM | 3.1 µM | 1.77 µM | 3.36 µM | 0.817 µM | 2.25 µM | 0.237 µM | 0.599 µM | 0.628 µM | 2.08 µM | 0.627 µM | 1.95 µM | 0.54 µM |  | 0.257 µM | 0.728 µM | 1.41 µM | 2.95 µM
10 | Cn1cnc([N+](=O)[O-])c1Sc1nnc(-c2cccnc2)n1C |  | 60.5 µM |  | > 57.9 µM |  | > 100 µM |  | 28.9 µM |  | 36.7 µM |  | > 95.7 µM |  | 67.1 µM |  | 52 µM |  | 40.1 µM |  | 59.7 µM
11 | O=S(=O)(NC1=NCCN1C(=S)SN1CCn2c1nsc2=S)c1ccc(OC(F)(F)F)cc1 | 14.5 µM | 30.3 µM | 13.1 µM | 37.2 µM | 16.3 µM | 33 µM | 10.7 µM | 28.2 µM | 10.1 µM | 23 µM | 11 µM | 98.1 µM | 12.7 µM | 26.1 µM | 2.04 µM | 7.39 µM | 6.15 µM | 22.3 µM | 16.3 µM | 39.3 µM
12 | Cn1cc(C2=C(c3cn(C)c4ncccc34)C(=O)NC2=O)c2ccccc21 | 6.9 µM | > 25 µM | 8.27 µM | > 25 µM | 10.9 µM | > 25 µM | 5.23 µM | 13 µM | 7.03 µM | > 25 µM | 9.13 µM | > 25 µM | > 21.2 µM | > 25 µM | 7.54 µM | > 24 µM | 8.39 µM | > 25 µM | 10.1 µM | > 25 µM
13 | COc1ccc(-c2nc3sccn3c2/C(N)=N/C(=N)N)cc1OC | 27.2 µM | > 100 µM | 34.3 µM | > 100 µM | 24.6 µM | 58.3 µM | 56.6 µM | > 100 µM | > 100 µM | > 100 µM | 50.3 µM | > 100 µM | 43.1 µM | > 100 µM | 27.6 µM | > 100 µM | 19.1 µM | 45.2 µM | 43.8 µM | > 100 µM
14 | O=C1C(Cl)=C(Nc2cccc(Cl)c2)C(=O)N1Cc1ccc(Cl)cc1Cl | 0.252 µM | 12.8 µM | 2.94 µM | > 50.3 µM | 5.61 µM | 22.8 µM | 1 µM | 16 µM | 0.409 µM | 7.71 µM | 1.37 µM | 25 µM | 4.23 µM | 18.8 µM |  | > 100 µM | 0.685 µM | 7.57 µM | 0.0603 µM | > 36.1 µM
15 | COc1ccc(C(=O)Cn2c(C(=O)c3ccccc3)nc(-c3ccc(OC)cc3)c2-c2ccc(OC)cc2)cc1 | > 100 µM | > 100 µM | > 100 µM | > 100 µM | 74 µM | > 100 µM | > 100 µM | > 100 µM | > 100 µM | > 100 µM | 86.4 µM | > 100 µM | > 100 µM | > 100 µM | > 100 µM | > 100 µM | > 100 µM | > 100 µM | > 100 µM | > 100 µM
16 | COc1ccc2c(c1)/C(=C/c1c(C)nc3sc(C)nn13)C(=O)N2 | 7.2 µM | > 100 µM | 2.48 µM | > 100 µM | 4.35 µM | 61.9 µM | 0.614 µM | 4.96 µM | 6.53 µM | > 100 µM | 3.06 µM | > 50.5 µM | 0.632 µM | 7.86 µM | 2.64 µM | > 100 µM | 1.77 µM | > 100 µM | 6.38 µM | > 100 µM
17 | Cc1cc(I)cc(CN(C)CCCCN2CCCCC2)c1O | 35.5 µM | > 100 µM | 15 µM | 32 µM | 14.4 µM | 28.3 µM | 9.87 µM | 24.9 µM | 27.3 µM | 76.7 µM | 12.5 µM | 27.3 µM | 16 µM | 30.1 µM | 7.08 µM | 21.8 µM | 8.78 µM | 21.1 µM | 36.5 µM | > 100 µM
18 | CC12CCC(O)CC1CCC1C2CCC2(C)C(C3=CC(=O)OC3)CCC12O (stereo not drawn) |  | 4.72 µM |  | 13.1 µM |  | 6.01 µM |  | 12.2 µM |  | 10.3 µM |  | 7.07 µM |  | 10.2 µM |  | > 100 µM |  | 4.44 µM |  | 10.1 µM
19 | CC/C=C\CCC/C=C1/C(=O)C=C[C@@H]1C/C=C\CCCC(=O)OC | 2.92 µM | 8.18 µM | 3.14 µM | 8.11 µM | 3.54 µM | 11 µM | 4.1 µM | 12.5 µM | 2.13 µM | 4.43 µM | 4.79 µM | 22.1 µM | 2.3 µM | 4.02 µM | 2.43 µM | 8.39 µM | 2.44 µM | 4.95 µM | 3.71 µM | 12.8 µM
20 | CC(C)CCC[C@@H](C)[C@H]1CC[C@H]2[C@@H]3CC=C4C[C@@H](C(C(=O)O)C(=O)O)CC[C@]4(C)[C@H]3CC[C@]12C | 0.137 µM | 0.457 µM | 0.177 µM | 2.19 µM | 0.176 µM | 0.747 µM | 0.111 µM | 0.247 µM | 0.15 µM | 0.662 µM | 0.157 µM | 1.65 µM | 0.185 µM | 1.28 µM | 0.248 µM | 2.05 µM | 0.101 µM | 0.798 µM | 0.158 µM | 0.807 µM
